Tested on: treatment-resistant pruritus associated with atopic dermatitis, high or low baseline IgE
Assay: Exploratory analysis of study NCT02651714 by baseline IgE level (Example 4)
Type: in vivo, human
Design: Average Itch NRS / Average Itch NRS, Diff / Sleep Disturbance / Extension / Excoriations, Diff / Erythema / Skin dryness / Skin dryness, Diff / Itch / Itch, Diff / Insomnia / Insomnia, Diff / CGIC / CGIC, Diff / VRS / VRS, Diff / Average Itch VAS / Average Itch VAS, Diff / worst Itch VAS, Diff: scale not given here
Conditions: 85 mg bid; for Average Itch NRS, Diff / Average Itch VAS, Diff / CGIC, Diff / EASI, Diff / Erythema, Diff / Excoriations, Diff / Extension, Diff / Insomnia, Diff / Intensity, Diff / Itch, Diff / Lichenification, Diff / Log EASI, Diff / Objective SCORAD, Diff / Oozing/crusting, Diff / PBI, Diff / PGIC AD, Diff / PGIC ITCH, Diff / SCORAD Total, Diff / Skin dryness, Diff / Sleep Disturbance, Diff / Subjective SCORAD, Diff / VRS, Diff / Worst Itch NRS Day, Diff / Worst Itch NRS Night, Diff / Worst Itch NRS, Diff / edema/Papules, Diff / worst Itch VAS >= 30, Diff / worst Itch VAS, Diff / worst ItchVAS >= 40, Diff / EASI 75, Diff / SCORAD 50, Diff: Diff tradipitant vs placebo; for Average Itch NRS / Average Itch VAS / EASI / Log EASI / Objective SCORAD / SCORAD Total / Sleep Disturbance / Subjective SCORAD / VRS / Worst Itch NRS / Worst Itch NRS Day / Worst Itch NRS Night / worst Itch VAS: week 8, vs baseline; for worst Itch VAS >= 30 / worst ItchVAS >= 40: Fisher; for Erythema / Excoriations / Extension / Intensity / Lichenification / Oozing/crusting / Skin dryness / edema/Papules: objective SCORAD parameter; for Insomnia / Itch: subjective SCORAD parameter
Experimental: In the study described above in Example 3, an exploratory analysis is conducted to analyze Immunoglobulin E (IgE) levels and the effect of treatment with tradipitant on atopic dermatitis and pruritus. For purposes of the analysis, study participants having an IgE level greater than or equal to 100 kU/L are deemed to have a high IgE level, while study participants having an IgE level of less than 100 kU/L are deemed to have a low IgE level. The baseline mean and range SCORAD total for each of the total study population, the high IgE group, and the low IgE group are shown below in Table 5.
The mean and range of SCORAD totals shown in Table 5 illustrate that the study population spans different strata of disease severity, from mild to severe. Table 5 also illustrates the similarity in disease severity between the high IgE and low IgE groups. Table 6 (below) presents the study results of tradipitant in treatment-resistant pruritus associated with atopic dermatitis in individuals having high baseline IgE levels (IgE≥100 kU/L), while Table 7 (below) presents the study results of tradipitant in treatment-resistant pruritus associated with atopic dermatitis in individuals having low baseline IgE levels (IgE<100 kU/L). The data in Tables 6-7 represent a separation by IgE level of the data appearing in Table 4 above.
For purposes of the present analysis, individuals having an IgE level greater than or equal to 100 kU/L are considered to have high IgE levels, while individuals having an IgE level of less than 100 kU/L are considered to have low IgE levels.

[1] = high baseline IgE (≥100 kU/L), week 8
[2] = high baseline IgE (≥100 kU/L), week 8, LOCF
[3] = low baseline IgE (<100 kU/L), week 8
[4] = low baseline IgE (<100 kU/L), week 8, LOCF
[5] = high baseline IgE (≥100 kU/L), ITT, week 8
[6] = high baseline IgE (≥100 kU/L), ITT
[7] = high baseline IgE (≥100 kU/L), ITT, week 8, LOCF
[8] = low baseline IgE (<100 kU/L), ITT, week 8
[9] = low baseline IgE (<100 kU/L), ITT
[10] = low baseline IgE (<100 kU/L), ITT, week 8, LOCF

SMILES: O=C(c1ccccc1Cl)c1cccnc1-c1nnn(Cc2cc(C(F)(F)F)cc(C(F)(F)F)c2)c1-c1ccncc1 [Tradipitant]
- Average Itch NRS, Diff [1]: −1.6
- Average Itch VAS, Diff [1]: −14.97
- CGIC, Diff [1]: −0.96
- EASI, Diff [1]: −1.13
- Erythema, Diff [1]: −0.15
- Excoriations, Diff [1]: −0.56
- Extension, Diff [1]: −0.72
- Insomnia, Diff [1]: −1.12
- Intensity, Diff [1]: −1.75
- Itch, Diff [1]: −2.04
- Lichenification, Diff [1]: −0.27
- Log EASI, Diff [1]: −0.46
- Objective SCORAD, Diff [1]: −6.4
- Oozing/crusting, Diff [1]: −0.23
- PBI, Diff [1]: 0.67
- PGIC AD, Diff [1]: −0.91
- PGIC ITCH, Diff [1]: −0.82
- SCORAD Total, Diff [1]: −9.9
- Skin dryness, Diff [1]: −0.27
- Sleep Disturbance, Diff [1]: −1.7
- Subjective SCORAD, Diff [1]: −3.1
- VRS, Diff [1]: −0.5597
- Worst Itch NRS Day, Diff [1]: −2.06
- Worst Itch NRS Night, Diff [1]: −2.14
- Worst Itch NRS, Diff [1]: −2.1
- edema/Papules, Diff [1]: −0.39
- worst Itch VAS >= 30, Diff [1]: 36.3%
- worst Itch VAS, Diff [1]: −25.7
- worst ItchVAS >= 40, Diff [1]: 28.4%
- EASI 75, Diff [2]: 18.3%
- SCORAD 50, Diff [2]: 36.6%
- Average Itch NRS, Diff [3]: 0.4
- Average Itch VAS, Diff [3]: 6.8
- CGIC, Diff [3]: −0.3
- EASI, Diff [3]: −0.47
- Erythema, Diff [3]: −0.31
- Excoriations, Diff [3]: −0.24
- Extension, Diff [3]: −0.94
- Insomnia, Diff [3]: 0.29
- Intensity, Diff [3]: −0.99
- Itch, Diff [3]: 0.13
- Lichenification, Diff [3]: −0.03
- Log EASI, Diff [3]: −0.21
- Objective SCORAD, Diff [3]: −3.7
- Oozing/crusting, Diff [3]: −0.18
- PBI, Diff [3]: 0.5
- PGIC AD, Diff [3]: −0.6
- PGIC ITCH, Diff [3]: −0.48
- SCORAD Total, Diff [3]: −2.8
- Skin dryness, Diff [3]: −0.40
- Sleep Disturbance, Diff [3]: 0.2
- Subjective SCORAD, Diff [3]: 0.43
- VRS, Diff [3]: −0.23
- Worst Itch NRS Day, Diff [3]: 0.43
- Worst Itch NRS Night, Diff [3]: 0.08
- Worst Itch NRS, Diff [3]: 0.3
- edema/Papules, Diff [3]: 0.08
- worst Itch VAS >= 30, Diff [3]: −3.2%
- worst Itch VAS, Diff [3]: −0.9
- worst ItchVAS >= 40, Diff [3]: 5.6%
- EASI 75, Diff [4]: 1.8%
- SCORAD 50, Diff [4]: 7.7%
- CGIC [5]: 2.6
- PBI [5]: 1.7
- PGIC AD [5]: 3.0
- PGIC ITCH [5]: 2.7
- Average Itch NRS [6]: −3.4
- Average Itch VAS [6]: −41.9
- EASI [6]: −3.78
- Log EASI [6]: −0.8
- Objective SCORAD [6]: −11.7
- SCORAD Total [6]: −20.3
- Sleep Disturbance [6]: −3.5
- Subjective SCORAD [6]: −8.7
- VRS [6]: −1.529
- Worst Itch NRS [6]: −3.6
- Worst Itch NRS Day [6]: −3.7
- Worst Itch NRS Night [6]: −3.8
- worst Itch VAS [6]: −43.9
- worst Itch VAS >= 30 [5]: 57.9%
- worst ItchVAS >= 40 [5]: 50.0%
- EASI 75 [7]: 23.7%
- SCORAD 50 (patients with at least a 50 percent reduction of SCORAD) [7]: 47.4%
- SCORAD 50 (patients with at least a 50 percent reduction of SCORAD) (high baseline IgE (≥100 kU/L), ITT, week 8, LOCF, listed as tradipitant): 47%
- CGIC [8]: 2.7
- PBI [8]: 1.98
- PGIC AD [8]: 2.4
- PGIC ITCH [8]: 2.3
- Average Itch NRS [9]: −2.9
- Average Itch VAS [9]: −39.3
- EASI [9]: −2.7
- Log EASI [9]: −0.67
- Objective SCORAD [9]: −13.1
- SCORAD Total [9]: −19.9
- Sleep Disturbance [9]: −3.0
- Subjective SCORAD [9]: −7.2
- VRS [9]: −1.54
- Worst Itch NRS [9]: −2.9
- Worst Itch NRS Day [9]: −2.9
- Worst Itch NRS Night [9]: −3.0
- worst Itch VAS [9]: −44
- worst Itch VAS >= 30 [8]: 55.6%
- worst ItchVAS >= 40 [8]: 55.6%
- EASI 75 [10]: 19.4%
- SCORAD 50 [10]: 40.0%
- Erythema [5]: −0.46
- Excoriations [5]: −0.80
- Extension [5]: −2.4
- Intensity [5]: −3.2
- Lichenification [5]: −0.42
- Oozing/crusting [5]: −0.53
- Skin dryness [5]: −0.62
- edema/Papules [5]: −0.62
- Erythema [8]: −0.74
- Excoriations [8]: −0.74
- Extension [8]: −1.9
- Intensity [8]: −3.6
- Lichenification [8]: −0.49
- Oozing/crusting [8]: −0.61
- Skin dryness [8]: −0.73
- edema/Papules [8]: −0.43
- treatment effect in itch and disease severity, high IgE group compared to low IgE group (regardless of IgE cutoff (50 to 300 kU/L)): consistently stronger treatment effect
- Insomnia [5]: −4.0
- Itch [5]: −4.7
- Insomnia [8]: −3.2
- Itch [8]: −4.0

From US11549147B2, “Treatment of atopic dermatitis with tradipitant” (VANDA PHARMACEUTICALS INC., priority 2017, dated 2023)
